Source: paper PMC8405463, “Development of a method for assessing the accumulation and metabolization of antidepressant drugs in zebrafish (Danio rerio) eleutheroembryos” (Analytical and Bioanalytical Chemistry, 2021)
Where a name gives a salt, the structure may show the parent alone. Read-outs that look alike come from different tables or passages of the source.

Assays:
[1] = parameters: method as in earlier work; conditions: ref EPI suite (Experimental database or KOWWIN v1.67) and ChemAxon; cited from earlier work
zebrafish larvae = conditions: cited from earlier work; for calculated BCFs: individual compounds and mixtures at 5, 10 and 25 μg·L^-1
adult zebrafish = conditions: cited from earlier work
[2] = system: Japanese medaka (Oryzias latipes); conditions: cited from earlier work; for average concentration in fish: Japanese medaka exposed to fluoxetine, day 7
[3] = system: zebrafish (Danio rerio) eleutheroembryos; experiment: SSRI metabolization in eleutheroembryos exposed to the mixture of parent compounds
Method: (§1) […] The concentration of the target analyte was determined in both eleutheroembryos and exposure medium all throughout the experiment.
(§2) Fish roe samples from lumpfish and zebrafish eleutheroembryos: 10 mg of wet weigh (w/w) fortified with a solution containing all tested pharmaceuticals at 240 ng·g^-1 and paroxetine d6 as IS at 100 ng·g^-1 was a mixture with 500 μL of acetonitrile and sonicated with ultrasonic probe at 40% of amplitude for 60 s to assist the extraction of the selected compounds and the mixture was centrifuged. The residue was discarded, and the supernatant was cleaned using 100 mg of C18, vortexed for 30 s, and centrifuged. Acetonitrile was led to evaporation before derivatization and injection to the GC-MS following the same steps as described above.

[4] = as above; conditions: zebrafish (Danio rerio), whole eleutheroembryos (larvae), other: waterborne exposure in exposure medium, pH 7.8, metabolite concentration in eleutheroembryos; for concentration at 6 h: t = 6h; for concentration at 24 h: t = 24h; for concentration at 45 h: t = 45h; for concentration at 48 h: t = 48h
Method: as §1, §2

[5] = ref SCIfinder; cited from earlier work
human liver microsomes = system: human liver microsomes; parameters: method as in PMID 1389950; conditions: citalopram metabolized by cytochrome P450 isozyme to N-desmethylcitalopram; cited from earlier work
[6] = system: zebrafish (Danio rerio) eleutheroembryos; experiment: Bioconcentration experiment (OECD 305 based), 48 h exposure; format: in vivo; conditions: pH 7.8; for BCF48h: Cf(48h)/Cw(48h); for BCFk: k1/k2, first-order one-compartment model, 48 h
Method: Zebrafish eleutheroembryos were cultured from wild-type adult zebrafish bred and maintained in AZTI Zebrafish Facility (REGA ES489010006105) under standard conditions. The OECD 305 technical guidance was used as reference to establish the experimental conditions for growing as well as the nominal concentrations for the contaminants (dissolved oxygen ≥ 60 %, 27°C and pH 7.8 ± 0.2). Exposure solutions were prepared with the composition of fresh river water (ISO 73463 [43]): 220.5 mg of CaCl2, 63 mg of NaHCO3, 5.5 mg of KCl, and 60.1 mg of MgSO4 per liter of distilled water in plastic tanks.
[…]. […] […].
Bioconcentration factor (BCF) was estimated as the ratio between the concentration of the compound in the target organism, at the maximum time of exposure and the mean calculated in the exposure medium (BCF48h). […]
Where Cf is the concentration in fish (ng·g^-1), t is the exposure time (h), k1 is the first-order uptake constant (L·kg^-1·h^-1), Cw is the concentration of the chemical in the exposure media (μg·L^-1), and k2 is the first-order elimination rate constant (h^-1). Assuming a negligible concentration in fish samples at t0 and considering its constant in the exposure medium, the equations can be expressed as: 3 Cfuptake=k1/k2.Cw1−e^−k2t 4 Cfdepuration=Cf,0.e^−k2t
Where Cf,0 denotes the compound concentration in the organism, when the depuration phase starts. Experimental kinetics data were done using the software NONLIN 5.1, which is specific for no linear adjustments (Nashville, TN). BCFs were calculated applying the two procedures, getting BCF48h (Cf (48h) / Cw (48h)) and BCFk (k1/k2) for comparison purposes when steady state is reached.

[7] = system: adult male fathead minnows (Phimephales promelas); conditions: plasma, 3, 11 and 28 ng·L^-1 in water; cited from earlier work
[8] = parent exposure concentration 80 μg·L^-1, t = 6h
[9] = parent exposure concentration 80 μg·L^-1, t = 24h
[10] = parent exposure concentration 80 μg·L^-1, t = 45h
[11] = parent exposure concentration 80 μg·L^-1, t = 48h
[12] = parent exposure concentration 300 μg·L^-1, t = 6h
[13] = parent exposure concentration 300 μg·L^-1, t = 24h
[14] = parent exposure concentration 300 μg·L^-1, t = 45h
[15] = parent exposure concentration 300 μg·L^-1, t = 48h
[16] = parent exposure concentration 80 μg·L^-1
[17] = parent exposure concentration 300 μg·L^-1

## CNCCC(Oc1ccc(C(F)(F)F)cc1)c1ccccc1 (stereo not shown) [Fluoxetine, Fluoxetine hydrochloride]
[1]
  Log kow: 4.65
Zebrafish larvae; high concentration exposure 5000 μg·L^-1
  bioaccumulation: 195
Zebrafish larvae
  calculated BCFs: 94–170
Zebrafish larvae; low and moderate concentrations 10–50 μg·L^-1
  bioaccumulation: around 30
Adult zebrafish; exposed to 0.9 and 3.20 μg·L^-1
  BCF: 20 L/kg
[2]
  average concentration in fish: 40.8 ± 5.0 ng·g^-1 w.w.
[2]; Japanese medaka, nominal fluoxetine concentration 640 ng·L^-1
  kinetic BCF: 80
[2]; Japanese medaka, pH 7
  BCF: 9 L/kg
[2]; Japanese medaka, pH 8
  BCF: 30 L/kg
[2]; Japanese medaka, pH 9
  BCF: 260 L/kg

## CNCCCC1(c2ccc(F)cc2)OCc2cc(C#N)ccc21 (stereo not shown) [Desmethylcitalopram, desmethylcitalopram hydrochloride]
[3]; [8]
  ratio metabolite / parent compound in the larvae: 0.07
[3]; [9]
  ratio metabolite / parent compound in the larvae: 0.06
[3]; [10]
  ratio metabolite / parent compound in the larvae: 0.15
[3]; [11]
  ratio metabolite / parent compound in the larvae: 0.54
[3]; [12]
  ratio metabolite / parent compound in the larvae: 0.47
[3]; [13]
  ratio metabolite / parent compound in the larvae: 0.78
[3]; [14]
  ratio metabolite / parent compound in the larvae: 0.15
[3]; [15]
  ratio metabolite / parent compound in the larvae: 0.26
[4]; [16]
  concentration at 6 h: 8.9 ng/g
  concentration at 24 h: 10.1 ng/g
  concentration at 45 h: 14.3 ng/g
  concentration at 48 h: 32.3 ng/g
[4]; [17]
  concentration at 6 h: 118 ng/g
  concentration at 24 h: 297 ng/g
  concentration at 45 h: 203 ng/g
  concentration at 48 h: 123 ng/g
[1]
  Log kow: 3.38
[5]
  pKa: 10.54
Human liver microsomes
  ratio for the metabolite: 5–10 fold
[6]; nominal 80 μg·L^-1
  BCF48h: 0.69
  BCFk: 0.7
[6]; nominal 300 μg·L^-1
  BCF48h: 0.21
  BCFk: 0.35

## N[C@H]1CC[C@@H](c2ccc(Cl)c(Cl)c2)c2ccccc21 [Norsertraline, norsertraline hydrochloride]
[3]; [8]
  metabolite concentration in eleutheroembryos: 44.4 ng/g
  ratio metabolite / parent compound in the larvae: 0.17
[3]; [9]
  metabolite concentration in eleutheroembryos: 504.0 ng/g
  ratio metabolite / parent compound in the larvae: 0.12
[3]; [10]
  metabolite concentration in eleutheroembryos: 751.8 ng/g
  ratio metabolite / parent compound in the larvae: 0.33
[3]; [11]
  metabolite concentration in eleutheroembryos: 731.3 ng/g
  ratio metabolite / parent compound in the larvae: 0.16
[3]; [12]
  metabolite concentration in eleutheroembryos: 141.4 ng/g
  ratio metabolite / parent compound in the larvae: 0.17
[3]; [13]
  metabolite concentration in eleutheroembryos: 1228.7 ng/g
  ratio metabolite / parent compound in the larvae: 0.18
[3]; [14]
  metabolite concentration in eleutheroembryos: 1968.2 ng/g
  ratio metabolite / parent compound in the larvae: 0.41
[3]; [15]
  metabolite concentration in eleutheroembryos: 2594.7 ng/g
  ratio metabolite / parent compound in the larvae: 0.47
[1]
  Log kow: 4.72
[6]; nominal 50 μg·L^-1
  BCF48h: 26.5
  BCFk: 38

## CN(C)CCCC1(c2ccc(F)cc2)OCc2cc(C#N)ccc21 (stereo not shown) [Citalopram, citalopram hydrobromide]
[1]
  Log kow: 3.74

## NCCC(Oc1ccc(C(F)(F)F)cc1)c1ccccc1 (stereo not shown) [Norfluoxetine, norfluoxetine hydrochloride]
[5]
  pKa: 9.05
[2]
  average concentration in fish: 64.3 ± 8.7 ng·g^-1 w.w.

## CN[C@H]1CC[C@@H](c2ccc(Cl)c(Cl)c2)c2ccccc21 [Sertraline, sertraline hydrochloride]
[1]
  Log kow: 5.29
Adult zebrafish; exposed to 0.2 and 0.76 μg·L^-1
  BCF: 50 to 70 L/kg
[7]
  bioaccumulation values: approximately 80

## Fc1ccc([C@@H]2CCNC[C@H]2COc2ccc3c(c2)OCO3)cc1 [Paroxetine, paroxetine hemihydrate]
[1]
  Log kow: 3.95
[5]
  pKa: 9.90
Zebrafish larvae
  calculated BCFs: 190–290
